From patent US20070225256A1, “COMPOUND” (priority 2004, published 2007)
Where two headings read alike, the source gives them in different places.

Columns and labels:
[1] = cited from earlier work
steroid sulphatase = target: T1, steroid sulphatase (Homo sapiens, UniProt P08842); conditions: compared with EMATE; cited from earlier work
T1 sequence (P08842 22-583): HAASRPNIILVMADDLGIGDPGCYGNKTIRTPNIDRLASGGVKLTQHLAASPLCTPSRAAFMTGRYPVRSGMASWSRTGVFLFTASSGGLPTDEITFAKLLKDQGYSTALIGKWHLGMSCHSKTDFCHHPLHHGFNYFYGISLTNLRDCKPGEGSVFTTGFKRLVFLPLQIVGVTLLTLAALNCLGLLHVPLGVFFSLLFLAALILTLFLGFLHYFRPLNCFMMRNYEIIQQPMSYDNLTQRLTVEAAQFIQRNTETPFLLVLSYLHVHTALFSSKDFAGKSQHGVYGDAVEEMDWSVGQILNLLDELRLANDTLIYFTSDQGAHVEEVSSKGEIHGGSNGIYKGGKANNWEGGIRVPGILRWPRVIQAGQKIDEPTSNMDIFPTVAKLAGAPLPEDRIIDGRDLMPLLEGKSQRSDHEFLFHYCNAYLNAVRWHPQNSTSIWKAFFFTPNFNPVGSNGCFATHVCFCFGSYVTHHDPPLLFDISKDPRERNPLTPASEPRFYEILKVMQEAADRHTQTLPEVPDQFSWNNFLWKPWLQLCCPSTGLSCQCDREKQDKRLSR

MCF-7 = test: Inhibition of MCF-7 cell proliferation; assay type: cell-based; conditions: for IC50: read-out: Concentration for 50% inhibition of MCF-7 proliferation
Procedure: MCF-7 breast cancer cells are seeded into multi-well culture plates at a density of 10^5 cells/well. Cells were allowed to attach and grown until about 30% confluent when they are treated as follows:
Cells are grown for 6 days in growth medium containing the COI with changes of medium/COI every 3 days. At the end of this period cell numbers were counted using a Coulter cell counter.
Inhibition of MCF-7 Cell Proliferation

[2] = cited from earlier work; remark: listed apart in the source
E1-STS [3] = target: T2, E1-STS (Homo sapiens, UniProt P08842); set-up: endogenous in cells; host or cells: MCF-7; conditions: 0.1 nM; cited from earlier work
T2 sequence (P08842 22-583): T1 sequence (P08842 22-583)

E1-STS [4] = target: T2, E1-STS; conditions: compared with EMATE; cited from earlier work

## COc1cc2c(cc1OS(N)(=O)=O)CC[C@@H]1[C@@H]2CC[C@]2(C)C(=O)CC[C@@H]12 [2-methoxyoestrone-3-O-sulphamate]
[1]; rat, in vivo
  oestrogenicity: devoid of oestrogenicity
Steroid sulphatase
  potency as a steroid sulphatase inhibitor: equipotent with EMATE

## CCc1cc2c(cc1OS(N)(=O)=O)CC[C@@H]1[C@@H]2CC[C@]2(C)C(CS(C)(=O)=O)CC[C@@H]12 (some centres unmarked) [Compound 8, 2-Ethyl-3-O-sulfamoyl-17-methanesulfonylmethyl estrone]
MCF-7
  % Inhibition of MCF-7 proliferation at 10 μM: 79%

## CCc1cc2c(cc1OS(N)(=O)=O)CC[C@@H]1[C@@H]2CC[C@]2(C)[C@@H](CC)CC[C@@H]12 [Compound 11, 2-Ethyl-3-O-sulfamoyl-17-β-ethyl-17-deoxy estrone]
MCF-7
  % Inhibition of MCF-7 proliferation at 10 μM: 83%

## CCc1cc2c(cc1OS(N)(=O)=O)CC[C@@H]1[C@@H]2CC[C@]2(C)[C@@H](CCF)CC[C@@H]12 [Compound 14, 2-Ethyl-3-O-sulfamoyl-17β-(2-fluoro-ethyl)-17-deoxy estrone]
MCF-7
  % Inhibition of MCF-7 proliferation at 10 μM: 89%

## CCc1cc2c(cc1OS(N)(=O)=O)CC[C@@H]1[C@@H]2CC[C@]2(C)[C@@H](C[N+](=O)[O-])CC[C@@H]12 [Compound 23, 2-Ethyl-3-O-sulfamoyl-17β-nitromethyl-17-deoxy estrone]
MCF-7
  % Inhibition of MCF-7 proliferation at 10 μM: <50%

## CCc1cc2c(cc1OS(N)(=O)=O)CC[C@@H]1[C@@H]2CC[C@]2(C)[C@@H](CC(C)=O)CC[C@@H]12 [Compound 29, 2-Ethyl-3-O-sulfamoyl-17β-(2-oxopropyl) estrone]
MCF-7
  % Inhibition of MCF-7 proliferation at 10 μM: 69%

## COc1cc2c(cc1O)CCC1C2CC[C@@]2(C)C1CC[C@@H]2OC(N)=O (some centres unmarked) [Compound 57, 2-Methoxy-estradiol-17-carbamate]
MCF-7; Homo sapiens, MCF7
  IC50: 44 µM

## COc1cc2c(cc1OS(N)(=O)=O)CC[C@@H]1[C@@H]2CC[C@]2(C)[C@@H](OC(N)=O)CC[C@@H]12 [Compound 58, 2-Methoxy-3-O-sulfamoyl estradiol-17-carbamate]
MCF-7
  IC50: 1.8 µM

## C[C@]12CC[C@@H]3c4ccc(OS(=O)(=O)O)cc4CC[C@H]3[C@@H]1CCC2=O [Compound E1S, oestrone sulphate]
[2]
  half-life in blood: 10 to 12 h

## CC12CCC3c4ccc(OS(N)(=O)=O)cc4CCC3C1CCC2=O (centres unmarked) [EMATE, oestrone-3-sulphamate]
[1]; rats, oral
  oral uterotrophic activity relative to estradiol: 100 times
E1-STS [3]
  inhibition of E1-STS activity in intact MCF-7 cells: more than 99%

## oestrone-3-N-sulphamate
E1-STS [4]
  E1-STS inactivation: weaker non-time-dependent inactivators

## oestrone-3-S-sulphamate
E1-STS [4]
  E1-STS inactivation: weaker non-time-dependent inactivators
